Measurements reported in patent US20070037739A1, “Compounds useful in coating stents to prevent and treat stenosis and restenosis” (Medlogics Device Corporation, priority 2003, published 2007).
Converted amounts (≈) assume the structure as drawn. Peptide text beside a SMILES is read from it.

How the values were obtained:
U937 cells = assay: TNF-induced DNA fragmentation in U937 cells; format: cell-based
From the text: TNF-α-induced apoptosis in U937 monocytic leukemia cells can be used to evaluate the mechanism of apoptosis and its pharmacological manipulation in various diseases, including inflammation. This can be measured by internucleosomal DNA cleavage (Wright, S. C.; Kumar, P.; Tam, A. W.; Shen, N.; Varma, M.; Larrick, J. W. Apoptosis and DNA fragmentation precede TNF-induced cytolysis in U937 cells. J. Cell. Biochem., 1992, 48, 344-355). It has been shown that signal transduction pathways leading to apoptosis depend on the generation of free radicals (Buttke, T. M.; Sandstrom, P. A. Oxidative stress as a mediator of apoptosis. Immunol. Today, 1994, 15, 7-10) and alterations in the intracellular redox status through depletion of […] glutathione (GSH) (Ghibelli, L.; Coppola, S.; Rotilio, G.; Lafavia, E.; Maresca, V.; Ciriolo, M. R. Nonoxidative loss of gluthione in apoptosis via GSH extrusion. Biochem. Biophys. Res. Comm. 1995, 216, 313-320; van den Dobbelsteen, D. J.; Stefen, C.; Nobel, I.; Schlegel, J.; Cotgreave, I. A; Orrenius, S.; Slater, A. R. G. Rapid and specific efflux of reduced glutathione during apoptosis induced by anti-Fas/APO-1 antibody. J. Cell. Biochem., 1996, 271, 15420-15427).

[1] = Balloon-induced intimal injury (restenosis); format: in vivo; conditions: DAA-1 treated animals
From the text: Following balloon-induced […] intimal injury, rats were give daily intravenous saline or DAA-I at 15, 30 or 45 pmol/kg×14d.

[2] = injected, 400 mg/kg; cited from earlier work
[3] = 12 mg/d through inhalation for four days; cited from earlier work
NADPH oxidase = target: T1, NADPH oxidase (Homo sapiens, UniProt P04839); conditions: read-out: IC50 to inhibit NADPH oxidase activity; cited from earlier work
T1 sequence (P04839 2-570 limits assumed): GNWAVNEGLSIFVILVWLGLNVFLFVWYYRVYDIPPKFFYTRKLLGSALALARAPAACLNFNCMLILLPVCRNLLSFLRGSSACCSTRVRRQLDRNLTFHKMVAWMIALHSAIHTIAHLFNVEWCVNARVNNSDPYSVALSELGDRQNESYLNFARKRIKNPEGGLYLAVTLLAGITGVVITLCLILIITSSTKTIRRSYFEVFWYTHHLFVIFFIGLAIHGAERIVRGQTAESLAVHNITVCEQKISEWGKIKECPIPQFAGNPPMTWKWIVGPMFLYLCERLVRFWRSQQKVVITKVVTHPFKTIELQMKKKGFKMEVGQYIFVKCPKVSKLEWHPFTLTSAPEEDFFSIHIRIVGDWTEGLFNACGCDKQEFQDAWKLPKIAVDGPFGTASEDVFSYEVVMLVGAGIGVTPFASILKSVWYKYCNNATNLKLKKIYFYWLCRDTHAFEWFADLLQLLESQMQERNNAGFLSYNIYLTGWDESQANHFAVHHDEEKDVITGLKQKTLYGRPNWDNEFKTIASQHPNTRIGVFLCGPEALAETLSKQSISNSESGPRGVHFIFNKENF

[4] = tested on: peripheral blood mononuclear cells (PBMNC); conditions: 100 μg/ml; mycobacterial 60 kDa heat shock protein 5 μg/ml; six RA patients; cited from earlier work
neutrophils [5] = conditions: PMA- and zymosan-stimulated neutrophils, healthy human volunteers; cited from earlier work
PBMNC = conditions: LPS- and PG-stimulated PBMNC, healthy human donors; cited from earlier work
peritoneal macrophages = conditions: cited from earlier work
J-774A.1 cells = conditions: cited from earlier work
pulmonary macrophages = conditions: cited from earlier work
[6] = cited from earlier work
[7] = cited from earlier work; remark: listed apart in the source
neutrophils [8] = conditions: PMA-stimulated rat neutrophils; cited from earlier work
human cartilage = conditions: in vitro; cited from earlier work

## COc1cc(C(C)=O)ccc1OC(C)=O [Compound 1, 4-Acetoxy-3-methoxyacetophenone]
U937 cells
  IC50 (μg/ml), protective effect against TNF-induced DNA fragmentation: 43 µg/mL (≈ 207 µM)
  potency compared with apocynin (from IC50 values): more potent than apocynin

## COc1cc(C(C)=O)cc([N+](=O)[O-])c1O [Compound 2, 4-Hydroxy-3-methoxy-5-nitroacetophenone]
U937 cells
  IC50 (μg/ml), protective effect against TNF-induced DNA fragmentation: 90 µg/mL (≈ 426 µM)

## COc1cc(C(C)=O)cc(N)c1O.Cl [Compound 3, 5-Amino-4-hydroxy-3-methoxyacetophenone hydrochloride]
U937 cells
  IC50 (μg/ml), protective effect against TNF-induced DNA fragmentation: 80 µg/mL

## COc1cc(C(C)=O)cc(NC(C)=O)c1O [Compound 4, 5-Acetoamido-4-hydroxy-3-methoxyacetophenone]
U937 cells
  IC50 (μg/ml), protective effect against TNF-induced DNA fragmentation: 37 µg/mL (≈ 166 µM)
  potency compared with apocynin (from IC50 values): more potent than apocynin

## CC[C@H](C)[C@H](NC(=O)[C@H](Cc1ccc(O)cc1)NC(=O)[C@@H](NC(=O)[C@@H](N)CCCNC(=N)N)C(C)C)C(=O)N[C@@H](Cc1c[nH]cn1)C(=O)N1CCC[C@H]1C(=O)N[C@@H](Cc1ccccc1)C(=O)N[C@@H](Cc1c[nH]cn1)C(=O)N[C@@H](CC(C)C)C(=O)O [DAA-I, Arg-Val-Tyr-IIe-His-pro-Phe-His-Leu] (H-RVYIHPFHL-OH)
[1]
  toxicity: no appreciable toxicity was detected

## COc1cc(C(C)=O)ccc1O [apocynin]
[2]
  obvious effects on the mice: no obvious effects
[3]
  side effects: no side effects
NADPH oxidase
  IC50: 9.6 µM
[4]
  inhibition of production of IL-1: greater than 50%
  inhibition of production of TNF-α: greater than 50%
Neutrophils [5]
  concentration inhibiting ROS production by 50%: 4 µg/mL
PBMNC
  TNF-α release: dose-dependently inhibited
Peritoneal macrophages; apocynin 10 mM 25 min before myelin and zymosan, controls 75%
  oxidative burst: about 5%
Peritoneal macrophages; rat peritoneal macrophages
  phagocytosis of myelin: dose-dependently inhibited
J-774A.1 cells; 100 μg/ml, cells+LDL+Cu2+ or cells+PMA
  release of superoxide to the medium: completely blocked
J-774A.1 cells; non-activated cells
  macrophage-released superoxides, apocynin alone: 0.2 nmol superoxide/10^6 cells
Pulmonary macrophages
  production of prostaglandin E2: increases the production of prostaglandin E2
[6]; 24 μg/kg
  joint inflammation at lowest dose: protected the animals against joint inflammation
[6]; 200 μg/ml
  joint swelling at highest dose: again inhibited joint swelling
[6]; CIA rats, overall
  joint inflammation: significantly inhibited
[6]; CIA rats
  IL-6 production: reduced IL-6 production
  swelling after termination of treatment: did not result in a flare-up of the swelling
[7]; 5 mg/kg orally, pretreatment
  decrease of glutathione levels induced by ozone exposure: almost completed inhibited
[7]; apocynin pretreatment, air 15.4%, ozone 32.0%
  mean redox value (glutathione): 18.3%
U937 cells; Homo sapiens, U-937, read-out: IC50 (μg/ml), protective effect against TNF-induced DNA fragmentation
  IC50: 64 µg/mL (≈ 385 µM)
Neutrophils [8]
  production of ROS: competitively inhibited, in a dose-dependent manner
Human cartilage
  cartilage destruction and adverse effects on cartilage: can counteract human RA-inflammation-mediated cartilage destruction without having adverse effects on human cartilage
